51 compounds from the Biogen ADME set (Fang et al. 2023) can be followed below.

For this data set the following is noted: for aqueous solubility: pH 6.8.

Converted amounts (≈) assume the structure as drawn.

Broadly, the aqueous solubility is the concentration that dissolves in the medium under given conditions. A higher aqueous solubility goes with a readily soluble substance. In the case of `CCCN1CCn2nc(-c3nc4cc(OC)ccc4[nH]3)cc2C1`, the MDR1-MDCK efflux ratio worked out at 0.825; the intrinsic clearance, human liver microsomes was at most 4.74 mL/min/kg; the intrinsic clearance, rat liver microsomes is 280 mL/min/kg; the aqueous solubility came out at 40.1 µg/mL (≈ 129 µM).
Take `CNc1nc(C)cc(C(=O)Nc2ccc3[nH]ncc3c2)n1`: the MDR1-MDCK efflux ratio turned out to be 0.659; the fraction unbound, human plasma was 0.312; the intrinsic clearance, human liver microsomes was 21.3 mL/min/kg.
`Cn1cc(C(=O)N2CCC(c3cc(C(F)(F)F)c4c(n3)CCNC4=O)CC2)ccc1=O`: the MDR1-MDCK efflux ratio worked out at 0.752; the intrinsic clearance, human liver microsomes is at most 4.74 mL/min/kg; the intrinsic clearance, rat liver microsomes was at most 10.7 mL/min/kg; the aqueous solubility came to 53 µg/mL (≈ 122 µM).
For the compound `Cc1ccc(-c2nc3ccccc3[nH]2)cc1NS(=O)(=O)c1ccc(Cl)cc1`, the MDR1-MDCK efflux ratio came out at 4.88 and the aqueous solubility amounted to 0.28 µg/mL (≈ 0.704 µM).
For `COc1ccccc1-c1nc(-c2ccc(NC(C)=O)cc2)c(C)s1`, the aqueous solubility amounted to 0.73 µg/mL (≈ 2.16 µM).
`OC(Cn1cncn1)(Cn1cncn1)c1ccc(F)cc1F`: the MDR1-MDCK efflux ratio was 5.25; the intrinsic clearance, human liver microsomes was at most 4.74 mL/min/kg; the intrinsic clearance, rat liver microsomes was at most 10.7 mL/min/kg; the aqueous solubility amounted to 42.9 µg/mL (≈ 140 µM).
Take `O=c1c2cc(OCc3ccc(Cl)cc3)ccc2nc2n1CCCCC2`: the MDR1-MDCK efflux ratio worked out at 0.969 and the aqueous solubility is 0.38 µg/mL (≈ 1.07 µM).
In the case of `Cn1cc(NC(=O)c2csc(Cc3ccccc3)n2)cn1`, the intrinsic clearance, human liver microsomes was determined as 23.7 mL/min/kg; the intrinsic clearance, rat liver microsomes is 64.8 mL/min/kg; the aqueous solubility amounted to 34.5 µg/mL (≈ 116 µM).
Regarding `CC(C)CCn1ccc(NC2CCN(C(C)C)CC2)n1`, the MDR1-MDCK efflux ratio turned out to be 3.58; the intrinsic clearance, human liver microsomes was at most 4.74 mL/min/kg; the intrinsic clearance, rat liver microsomes amounted to 152 mL/min/kg.
In the case of `CCOC1CCN(c2ccnc(C(=O)NCc3ccccc3)c2)CC1`, the MDR1-MDCK efflux ratio is 0.488; the intrinsic clearance, human liver microsomes came to 18.3 mL/min/kg; the intrinsic clearance, rat liver microsomes stood at 390 mL/min/kg.
Consider `CC(C)c1cc(CN(C)Cc2c[nH]nc2-c2ccc(F)cc2)no1`, for which the MDR1-MDCK efflux ratio is 1.01; the intrinsic clearance, human liver microsomes was found to be 325 mL/min/kg; the intrinsic clearance, rat liver microsomes stood at 1780 mL/min/kg; the aqueous solubility came out at 22.2 µg/mL (≈ 67.8 µM).
The compound `C[C@H](Cn1nc2c(cc1=O)CCCCC2)NC(=O)Cc1cccs1` had an intrinsic clearance, human liver microsomes of 153 mL/min/kg and an intrinsic clearance, rat liver microsomes of 817 mL/min/kg.
On to `CCONC(=O)c1cncn1-c1ccc(F)cc1`, for which the MDR1-MDCK efflux ratio stood at 2.24; the intrinsic clearance, human liver microsomes is at most 4.74 mL/min/kg; the intrinsic clearance, rat liver microsomes is at most 10.7 mL/min/kg; the aqueous solubility turned out to be 48 µg/mL (≈ 193 µM).
On to `CCN1CCCN(C(=O)Nc2ccc(COC3CCCC3)cc2)CC1`, for which the MDR1-MDCK efflux ratio turned out to be 9.16; the intrinsic clearance, human liver microsomes was found to be 6.32 mL/min/kg; the intrinsic clearance, rat liver microsomes stood at 287 mL/min/kg.
`CCOc1ncccc1C(=O)Nc1sccc1C#N` had an aqueous solubility of 1.13 µg/mL (≈ 4.13 µM).
On to `Cc1cc(NC(=O)[C@H](C)N(C)C)c2ccccc2n1`, for which the MDR1-MDCK efflux ratio turned out to be 0.813; the intrinsic clearance, human liver microsomes was found to be 9.63 mL/min/kg; the intrinsic clearance, rat liver microsomes was 109 mL/min/kg.
The like results for `CCc1nc(C)cc(N2CCCC3(CCNCC3)CC2)n1` were, in that order, 32.4, at most 4.74 mL/min/kg and at most 10.7 mL/min/kg.
`Fc1ccc2oc(Cn3nnc(-c4ccsc4)n3)nc2c1` showed an aqueous solubility of 30.2 µg/mL (≈ 100 µM).
The compound `C[C@@H](CN1CCC(n2c(=O)[nH]c3cc(Br)ccc32)CC1)NC(=O)[C@@H]1C[C@H]1c1ccccc1` had an intrinsic clearance, rat liver microsomes of 574 mL/min/kg.
Regarding `CC(C)CC(NC(=O)C(O)C(N)Cc1ccccc1)C(=O)O` (stereo not drawn), the MDR1-MDCK efflux ratio is 0.744 and the fraction unbound, rat plasma was 0.347.
Consider `CCC(=O)NCc1ccnc(N(C)C)c1`, for which the MDR1-MDCK efflux ratio is 0.879; the intrinsic clearance, human liver microsomes is at most 4.74 mL/min/kg; the intrinsic clearance, rat liver microsomes was at most 10.7 mL/min/kg; the aqueous solubility stood at 30.6 µg/mL (≈ 147 µM).
Consider `O=C(CSc1ncn[nH]1)N(C1CCCCC1)C1CCCCC1`, for which the MDR1-MDCK efflux ratio amounted to 2.57; the intrinsic clearance, human liver microsomes turned out to be 120 mL/min/kg; the intrinsic clearance, rat liver microsomes was determined as 1410 mL/min/kg; the aqueous solubility was 35.7 µg/mL (≈ 111 µM).
`O=C(NCc1ccc(O)c(O)c1)c1ccc2ccccc2n1` had an intrinsic clearance, human liver microsomes of at most 4.74 mL/min/kg; an intrinsic clearance, rat liver microsomes of 315 mL/min/kg; an aqueous solubility of 55.4 µg/mL (≈ 188 µM).
Take `CCCNC(=O)C1(Cc2ccccn2)CCOCC1`: the MDR1-MDCK efflux ratio came to 10.9; the intrinsic clearance, human liver microsomes was at most 4.74 mL/min/kg; the intrinsic clearance, rat liver microsomes was at most 10.7 mL/min/kg; the aqueous solubility came to 85.3 µg/mL (≈ 325 µM).
Take `CNc1nc(Nc2cnn([C@H]3CCN(C4COC4)C[C@@H]3F)c2Cl)ncc1C(F)(F)F`: the MDR1-MDCK efflux ratio is 1.31; the intrinsic clearance, human liver microsomes turned out to be 10.6 mL/min/kg; the intrinsic clearance, rat liver microsomes was determined as 60.9 mL/min/kg.
On to `O=C(NCc1ccccn1)c1ccc(F)cc1Cl`, for which the MDR1-MDCK efflux ratio came to 0.596; the intrinsic clearance, human liver microsomes is at most 4.74 mL/min/kg; the intrinsic clearance, rat liver microsomes is at most 10.7 mL/min/kg; the aqueous solubility amounted to 39.2 µg/mL (≈ 148 µM).
`CCn1c(COC(=O)c2ccc(C)s2)nc2cc(S(=O)(=O)N3CCCCC3)ccc21` gave an intrinsic clearance, human liver microsomes of 353 mL/min/kg; an intrinsic clearance, rat liver microsomes of 770 mL/min/kg; an aqueous solubility of 1.04 µg/mL (≈ 2.32 µM).
As for `CN1CCN(S(=O)(=O)Cc2ccc(Cl)c(Cl)c2)CC1`, the MDR1-MDCK efflux ratio turned out to be 0.562; the intrinsic clearance, human liver microsomes is 33.9 mL/min/kg; the intrinsic clearance, rat liver microsomes was 887 mL/min/kg.
As for `Cc1cccnc1NC(=O)Cc1coc2c(C)c(C)ccc12`, the MDR1-MDCK efflux ratio is 0.636; the intrinsic clearance, human liver microsomes amounted to 124 mL/min/kg; the intrinsic clearance, rat liver microsomes was found to be 4310 mL/min/kg; the aqueous solubility turned out to be 74.7 µg/mL (≈ 254 µM).
Take `CC(C)NC(=O)CN(C#N)c1ccccc1`: the intrinsic clearance, human liver microsomes was at most 4.74 mL/min/kg and the intrinsic clearance, rat liver microsomes is at most 10.7 mL/min/kg.
For `CCN(c1ccc(C(C)C)cc1)S(=O)(=O)c1ccccc1`, the MDR1-MDCK efflux ratio came out at 0.516 and the aqueous solubility worked out at 0.65 µg/mL (≈ 2.14 µM).
With `O=C(c1ccccc1N1CCOCC1)N(Cc1ccccn1)C1CCCCC1`, the MDR1-MDCK efflux ratio was found to be 3.17; the intrinsic clearance, human liver microsomes is 990 mL/min/kg; the intrinsic clearance, rat liver microsomes came to 3840 mL/min/kg.
With `COc1ccc(-c2cn3c4ccccc4nc3n2CCO)cc1`, the MDR1-MDCK efflux ratio came out at 0.389; the intrinsic clearance, human liver microsomes is 42.2 mL/min/kg; the intrinsic clearance, rat liver microsomes was 1190 mL/min/kg; the aqueous solubility turned out to be 47 µg/mL (≈ 153 µM).
For `COc1cccc(-n2c(S)nnc2COc2cccc3ccccc23)c1`, the MDR1-MDCK efflux ratio worked out at 1.07 and the aqueous solubility was 0.26 µg/mL (≈ 0.715 µM).
For the compound `CCC(=O)Nc1ccc(F)c(NC(=O)N2CC=C(C)CC2)c1`, the MDR1-MDCK efflux ratio amounted to 1.35; the intrinsic clearance, human liver microsomes was found to be 9.2 mL/min/kg; the intrinsic clearance, rat liver microsomes was determined as 68.6 mL/min/kg.
As to `CN(CC(=O)NC1(C#N)CCCC1)c1ccccc1`, the MDR1-MDCK efflux ratio is 0.924; the intrinsic clearance, human liver microsomes was determined as 20.3 mL/min/kg; the intrinsic clearance, rat liver microsomes came to 498 mL/min/kg; the aqueous solubility came to 46.5 µg/mL (≈ 181 µM).
Take `O=C(Nc1nncs1)c1ccc(N2CCC3(CCCCC3)C2)nc1`: the MDR1-MDCK efflux ratio was found to be 0.729 and the aqueous solubility worked out at 0.66 µg/mL (≈ 1.92 µM).
With `O=C(NCC1CCC2(CC1)OCCO2)c1[nH]nc2c1CCCC2`, the MDR1-MDCK efflux ratio was determined as 5.92; the intrinsic clearance, human liver microsomes worked out at 6.88 mL/min/kg; the intrinsic clearance, rat liver microsomes is 1270 mL/min/kg.
`Cc1nc2cc(-c3nccn3C)nn2c(NCc2cccnc2)c1C`: the MDR1-MDCK efflux ratio was found to be 28.5; the intrinsic clearance, human liver microsomes was determined as 14.7 mL/min/kg; the intrinsic clearance, rat liver microsomes was found to be 379 mL/min/kg; the aqueous solubility came out at 55.7 µg/mL (≈ 167 µM).
Take `N#CCN1CCCN(Cc2ccc(C#N)cc2)CC1`: the intrinsic clearance, human liver microsomes was 65.5 mL/min/kg; the intrinsic clearance, rat liver microsomes turned out to be 267 mL/min/kg; the aqueous solubility is 37.8 µg/mL (≈ 149 µM).
As to `COCC(C)(C)C(=O)N1CCCC2(CCNCC2)CC1`, the MDR1-MDCK efflux ratio was found to be 4.31; the intrinsic clearance, human liver microsomes is at most 4.74 mL/min/kg; the intrinsic clearance, rat liver microsomes was at most 10.7 mL/min/kg.
As to `NCc1cccc(C(=O)N2CCCC2)c1`, the MDR1-MDCK efflux ratio came to 3.58; the intrinsic clearance, human liver microsomes is at most 4.74 mL/min/kg; the intrinsic clearance, rat liver microsomes is at most 10.7 mL/min/kg; the aqueous solubility was 25.4 µg/mL (≈ 124 µM).
In the case of `Cc1cccc(-c2cccc(C(=O)NCCC3(O)CCCC3)c2)n1`, the MDR1-MDCK efflux ratio was determined as 2.77; the intrinsic clearance, human liver microsomes worked out at 21.6 mL/min/kg; the intrinsic clearance, rat liver microsomes worked out at 2910 mL/min/kg.
For the compound `CCN1CCc2nc(NC(=O)Cc3ccc(Cl)cc3)sc2C1`, the MDR1-MDCK efflux ratio stood at 1.02; the intrinsic clearance, human liver microsomes stood at 11.6 mL/min/kg; the intrinsic clearance, rat liver microsomes was at most 10.7 mL/min/kg; the aqueous solubility is 46.6 µg/mL (≈ 139 µM).
In the case of `Cn1cnnc1NC(=O)c1cnn2c1CCCC2`, the MDR1-MDCK efflux ratio turned out to be 3.95; the intrinsic clearance, human liver microsomes is at most 4.74 mL/min/kg; the intrinsic clearance, rat liver microsomes was at most 10.7 mL/min/kg.
For `Nc1cnc(Cc2ccc(F)cc2)nc1`, the MDR1-MDCK efflux ratio was 0.67; the intrinsic clearance, human liver microsomes is at most 4.74 mL/min/kg; the intrinsic clearance, rat liver microsomes is 15.4 mL/min/kg; the aqueous solubility worked out at 38.2 µg/mL (≈ 188 µM).
`CNC(=O)c1cc(-c2ccccc2)no1` returned an aqueous solubility of 37 µg/mL (≈ 183 µM).
Regarding `Cc1nccc(-c2cccc(NCC(=O)N3CCCCCCC3)c2)n1`, the MDR1-MDCK efflux ratio is 0.748; the intrinsic clearance, human liver microsomes is 302 mL/min/kg; the intrinsic clearance, rat liver microsomes turned out to be 2050 mL/min/kg; the aqueous solubility came to 55.6 µg/mL (≈ 164 µM).
For `O=C(c1ccc(O)nc1)N1CCN(c2ncccn2)CC1`, the MDR1-MDCK efflux ratio came out at 7; the intrinsic clearance, human liver microsomes is at most 4.74 mL/min/kg; the intrinsic clearance, rat liver microsomes was at most 10.7 mL/min/kg; the aqueous solubility was determined as 43.1 µg/mL (≈ 151 µM).
Regarding `CN(Cc1ccccc1)C1(C(=O)N2CCNC(=O)CC2)Cc2ccccc2C1`, the MDR1-MDCK efflux ratio amounted to 8.66; the fraction unbound, human plasma amounted to 0.0803; the fraction unbound, rat plasma amounted to 0.0818; the intrinsic clearance, human liver microsomes was 113 mL/min/kg. Also, the intrinsic clearance, rat liver microsomes was determined as 2760 mL/min/kg.
Consider `CCOC(=O)CCN1CCC=C(Br)C1`, for which the MDR1-MDCK efflux ratio is 0.625.
